Three molecules from ChEMBL document CHEMBL5506068 (J Med Chem, 2024) can be followed below.

The nature of data set [1]: Toxicity in Swiss Webster mouse assessed as effect on locomotion at 0.1 to 0.5 mg/kg,sc measured after 30 mins. In kind it is organism-based. Particulars: in vivo, 0.5 h, dose 0.1-0.5 mg/kg.
Data set [2] in a line: Toxicity in Swiss Webster mouse assessed as effect on average speed at 0.1 to 0.5 mg/kg,sc measured after 30 mins. In kind it is organism-based. Particulars: in vivo, 0.5 h, dose 0.1-0.5 mg/kg.
Data set [3] in a line: in vivo. The conditions noted are these: Swiss Webster, mouse, blood and plasma, sc, 0.1 mg/kg.
Description: Ratio of drug level in Swiss Webster mouse blood to plasma at 0.1 mg/kg, sc measured after 30 mins by LC-MS/MS analysis
A short description of data set [4]: in vivo. The conditions noted are these: Swiss Webster, mouse, blood and plasma, sc, 0.1 mg/kg. The source holds these as a separate data set.
Description: Ratio of drug level in Swiss Webster mouse blood to plasma at 0.1 mg/kg, sc measured after 60 mins by LC-MS/MS analysis
Data set [5] addresses T1, Delta-type opioid receptor (Homo sapiens, UniProt P41143). The experiment in a line: Displacement of [3H]diprenorphine from human DOR expressed in CHO cells assessed as dissociation constant incubated for […] by radioligand binding assay. In kind it is cell-based. In general terms: Loss of bound radioactivity is the signal in a displacement assay; it reports binding, not function.

Data set [6] relates to Mus musculus. The data set is described as follows: Antinociception activity in male Swiss Webster mouse model assessed as effect on tail withdrawal latency at 0.1 mg/kg, sc pre incubated with nor-BNI for 24 hrs followed by compound addition and measured after 20 mins by warm water tail immersion assay. In kind it is functional, organism-based.
Data set [7] concerns Mus musculus. The data set is described as follows: Antinociception activity in male Swiss Webster mouse model assessed as increase in maximum possible effect at 0.1 mg/kg, sc measured after 30 to 180 mins post injection by warm-water tail immersion assay. In kind it is functional, organism-based. Particulars: time 30-180 min.
For data set [8], the target named is Kappa-type opioid receptor (Mus musculus, UniProt P33534). The data set is described as follows: Displacement of [3H]diprenorphine from mouse KOR expressed in CHO cells assessed as dissociation constant incubated for […] by radioligand binding assay. In kind it is cell-based.
Data set [9] in a line: Abuse liability in male Sprague-Dawley rat assessed as reduction in reinforcement at 0.32 to 10 microg/kg administered per infusion. Particulars: in vivo, iv, dose 0.32-10 µg/kg. In kind it is toxicity.
The target of data set [10] is T1, Delta-type opioid receptor. The experiment in a line: Agonist activity at human DOR expressed in CHO cells increase in [35S]GTPgammaS binding measured after […] by scintillation counter analysis relative to SNC80. In kind it is functional, cell-based. Particulars: filed as agonist. (GTPγS is a poorly hydrolysed GTP analogue; its binding reports G protein activation.)

Data set [11] is described as follows: Toxicity in Swiss Webster mouse assessed as reduction in sedative effect at 0.1 to 0.5 mg/kg,sc. In kind it is organism-based. Particulars: in vivo, dose 0.1-0.5 mg/kg.
The nature of data set [12]: Drug uptake in Swiss Webster mouse plasma at 0.1 mg/kg, sc measured after 5 mins by LC-MS/MS analysis. Particulars: in vivo. In kind it is ADME, organism-based.
The test system of data set [13] is Mus musculus. The data set is described as follows: Antinociception activity in male Swiss Webster mouse model assessed as effect on tail withdrawal latency at 0.1 mg/kg, sc pre incubated with naltrindole for 30 mins followed by compound addition and measured after 20 mins by warm water tail immersion assay. In kind it is functional, organism-based.
Data set [14] relates to Mus musculus. The data set is described as follows: Antinociception activity in male Swiss Webster mouse model assessed as effect on tail withdrawal latency at 0.1 mg/kg, sc pre incubated with naltrindole/nor-BNI for 24 hrs followed by compound addition and measured after 20 mins by warm water tail immersion assay. In kind it is functional, organism-based.
In the next data set the target is Mu-type opioid receptor (Mus musculus, UniProt P42866). The experiment in a line: Displacement of [3H]Naloxone from mouse MOR expressed in CHO cells assessed as dissociation constant incubated for […] by radioligand binding assay. In kind it is cell-based.
Data set [15] deals with Mus musculus. The experiment in a line: Antinociception activity in male Swiss Webster mouse model assessed as increase in maximum possible effect at 10 mg/kg, sc measured after 20 mins by warm-water tail immersion assay relative to control. In kind it is functional.
The target in data set [16] is T1, Delta-type opioid receptor. The data set is described as follows: Binding affinity to DOR (unknown origin) assessed as dissociation constant.
Data set [17] relates to Mus musculus. The data set is described as follows: Antinociception activity in male Swiss Webster mouse model assessed as increase in maximum possible effect at 0.1 mg/kg, sc measured after 4 to 9 hrs post injection by warm-water tail immersion assay. Particulars: time 4-9 hrs. In kind it is functional, organism-based.
Data set [18] relates to Mus musculus. The experiment in a line: Antinociception activity in male Swiss Webster mouse model assessed as increase in maximum possible effect at 0.1 mg/kg, sc measured after 30 to 60 mins post injection by warm-water tail immersion assay. In kind it is functional, organism-based. Particulars: time 30-60 min.
For data set [19], the target named is T1, Delta-type opioid receptor.
The nature of data set [20]: Toxicity in Swiss Webster mouse assessed as reduction in locomotion activity administered as sc dose measured for 30 mins. In kind it is organism-based. Particulars: in vivo, 0.5 h, dose 0.1-0.5 mg/kg.
Data set [21] is described as follows: Abuse liability in male Sprague-Dawley rat assessed as reduction in reinforcement at 0.1 to 10 microg/kg administered per infusion. In kind it is toxicity. Particulars: in vivo, iv, dose 0.1-10 µg/kg.
Data set [22] relates to Mus musculus. The data set is described as follows: Antinociception activity in male Swiss Webster mouse model assessed as effective dose administered as sc dose measured after 20 mins by warm-water tail immersion assay. In kind it is functional.
Data set [23] is described as follows: in vivo. Particulars: Swiss Webster, mouse, blood and plasma, sc, 0.1 mg/kg. The source holds these as a separate data set.
Description: Ratio of drug level in Swiss Webster mouse blood to plasma at 0.1 mg/kg, sc measured after 10 mins by LC-MS/MS analysis
Data set [24] concerns Mus musculus. The data set is described as follows: Antinociception activity in male Swiss Webster mouse model assessed as effect on tail withdrawal latency at 0.05 to 0.1 mg/kg, sc pre incubated with nor-BNI for 24 hrs followed by compound addition and measured after 20 mins by warm water tail immersion assay. In kind it is functional, organism-based. The conditions noted are these: dose 0.05-0.1 mg/kg.

A short description of data set [25]: Toxicity in Swiss Webster mouse assessed as effect on average speed at 0.05 to 0.5 mg/kg,sc measured after 30 mins. In kind it is organism-based. Particulars: in vivo, 0.5 h, dose 0.05-0.5 mg/kg.
The nature of data set [26]: Toxicity in Swiss Webster mouse assessed as effect on locomotion at 0.05 to 0.5 mg/kg,sc measured after 30 mins. In kind it is organism-based. The conditions noted are these: in vivo, 0.5 h, dose 0.05-0.5 mg/kg.
For data set [27], the system named is Mus musculus. The data set is described as follows: Antinociception activity in male Swiss Webster mouse model assessed as increase in maximum possible effect at 0.05 mg/kg, sc measured after 6 hrs post injection by warm-water tail immersion assay. In kind it is functional, organism-based.
Data set [28] deals with Mus musculus. The data set is described as follows: Antinociception activity in male Swiss Webster mouse model assessed as increase in maximum possible effect at 0.1 mg/kg, sc measured after 30 to 360 mins post injection by warm-water tail immersion assay. Particulars: time 30-360 min. In kind it is functional, organism-based.
Data set [29] has as its system Mus musculus. The experiment in a line: Antinociception activity in male Swiss Webster mouse model assessed as effect on tail withdrawal latency at 0.05 to 0.1 mg/kg, sc pre incubated with nor-BNI/naltrindole for 24 hrs followed by compound addition and measured after 20 mins by warm water tail immersion assay. In kind it is functional, organism-based. The conditions noted are these: dose 0.05-0.1 mg/kg.

Data set [30] has as its system Mus musculus. The data set is described as follows: Antinociception activity in male Swiss Webster mouse model assessed as increase in maximum possible effect at 0.05 mg/kg, sc measured until 3 hrs post injection by warm-water tail immersion assay. In kind it is functional, organism-based.
Data set [31] has as its system Mus musculus. The experiment in a line: Antinociception activity in male Swiss Webster mouse model assessed as effect on tail withdrawal latency at 0.05 to 0.1 mg/kg, sc pre incubated with naltrindole for 30 mins followed by compound addition and measured after 20 mins by warm water tail immersion assay. In kind it is functional, organism-based. Particulars: dose 0.05-0.1 mg/kg.

Data set [32] is described as follows: Toxicity in Swiss Webster mouse assessed as reduction in sedative effect at 0.05 to 0.5 mg/kg,sc. In kind it is organism-based. The conditions noted are these: in vivo, dose 0.05-0.5 mg/kg.

The source made the active and inactive calls. The rule behind the calls is not given here.

T1 sequence (P41143 whole entry): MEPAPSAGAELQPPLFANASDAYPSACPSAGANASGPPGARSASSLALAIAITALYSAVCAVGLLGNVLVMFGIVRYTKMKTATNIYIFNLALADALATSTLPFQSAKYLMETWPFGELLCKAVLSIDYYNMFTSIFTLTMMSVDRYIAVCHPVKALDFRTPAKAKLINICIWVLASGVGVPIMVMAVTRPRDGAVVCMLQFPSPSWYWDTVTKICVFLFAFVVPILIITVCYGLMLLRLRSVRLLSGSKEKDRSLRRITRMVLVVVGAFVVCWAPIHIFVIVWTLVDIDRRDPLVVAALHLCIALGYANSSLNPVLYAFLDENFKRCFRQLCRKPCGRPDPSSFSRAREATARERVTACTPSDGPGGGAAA
Chain of Kappa-type opioid receptor (P33534 whole entry, the tested form may be a part): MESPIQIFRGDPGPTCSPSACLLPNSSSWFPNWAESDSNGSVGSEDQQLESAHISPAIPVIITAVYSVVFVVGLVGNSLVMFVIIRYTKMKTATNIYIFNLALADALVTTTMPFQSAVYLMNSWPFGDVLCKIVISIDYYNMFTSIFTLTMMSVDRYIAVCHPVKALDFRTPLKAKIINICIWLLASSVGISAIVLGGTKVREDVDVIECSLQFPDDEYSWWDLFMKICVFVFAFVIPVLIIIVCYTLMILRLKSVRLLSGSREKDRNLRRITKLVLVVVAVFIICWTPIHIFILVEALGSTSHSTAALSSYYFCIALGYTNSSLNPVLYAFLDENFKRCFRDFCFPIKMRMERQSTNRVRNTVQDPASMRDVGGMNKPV
Chain of Mu-type opioid receptor (P42866 whole entry): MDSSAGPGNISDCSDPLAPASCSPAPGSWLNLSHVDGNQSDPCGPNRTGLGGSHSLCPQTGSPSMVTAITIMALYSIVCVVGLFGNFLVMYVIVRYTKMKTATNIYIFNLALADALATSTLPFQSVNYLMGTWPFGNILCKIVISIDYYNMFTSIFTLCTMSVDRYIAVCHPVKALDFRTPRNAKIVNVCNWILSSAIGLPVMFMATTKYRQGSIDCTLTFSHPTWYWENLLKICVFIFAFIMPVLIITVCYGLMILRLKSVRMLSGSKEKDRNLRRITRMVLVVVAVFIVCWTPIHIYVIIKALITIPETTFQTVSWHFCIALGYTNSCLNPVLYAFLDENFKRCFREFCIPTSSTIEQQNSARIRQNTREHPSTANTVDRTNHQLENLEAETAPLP

Regarding `CN(C(=O)/C=C/c1ccco1)[C@H]1CC[C@@]2(O)[C@H]3Cc4ccc(O)c5c4[C@@]2(CCN3CC2CC2)[C@H]1O5.Cl`, the Activity result in data set [1] is “Toxic”; in data set [2], “Toxic”; in data set [9], “Non-Toxic”; in data set [11], “Toxic”. Further, the blood plasma ratio at 0.5 h in “in vivo [3]” worked out at 0.633. The blood plasma ratio at 1 h in “in vivo [4]” is 0.938. The Kd in data set [5] stood at 930 pM; in data set [8], 140 pM; on Mu-type opioid receptor, 200 pM. The outcome with Mus musculus [6], in the data set with Mus musculus [13] and in the data set on Mus musculus [14] was inactive. The result in the data set with Mus musculus [7] was Active. In data set [10], this molecule yielded an Emax of 83.2%. Also, in data set [12], the Drug uptake entry is reported as “Active”. In addition, the MPE in the data set with Mus musculus [15] amounted to 80%.
On to `CN(C(=O)/C=C/c1ccoc1)[C@@H]1CC[C@@]2(O)[C@H]3Cc4ccc(O)c5c4[C@@]2(CCN3CC2CC2)[C@H]1O5.Cl` [NALFURAFINE HYDROCHLORIDE], for which, in data set [16], the Kd stood at 116000 pM. Further, the Activity entry in data set [1] is reported as “Toxic”; in data set [2], “Toxic”; in data set [20], “Dose-Dependent Effect”; in data set [21] it was “Non-Toxic”. In addition, the result in the data set on Mus musculus [17], in the data set on Mus musculus [6], in the data set with Mus musculus [13] and in the data set with Mus musculus [14] was inactive. Moreover, in the data set on Mus musculus [18], the result was Active. Also, the EC50 in [19] is 141000 pM. Also, the ED50 with Mus musculus [22] came to 0.046 mg/kg. For the same molecule, in the data set on Mus musculus [15], the MPE is 80%.
Take `CN(C(=O)/C=C/c1ccco1)[C@@H]1CC[C@@]2(O)[C@H]3Cc4ccc(O)c5c4[C@@]2(CCN3CC2CC2)[C@H]1O5.Cl`: in the data set “in vivo [23]”, the blood plasma ratio at 10 min turned out to be 0.762. Also, the blood plasma ratio at 0.5 h in the data set “in vivo [3]” came to 0.645. Further, in “in vivo [4]”, the blood plasma ratio at 1 h came out at 1.45. The Kd in data set [5] came out at 7930 pM; in data set [8], 220 pM; at Mu-type opioid receptor, 780 pM. Besides, the result with Mus musculus [24], in the data set on Mus musculus [27], in the data set on Mus musculus [29] and in the data set on Mus musculus [31] was inactive. The Activity result is listed as “Toxic” in data set [25], “Non-Toxic” in data set [9], “Toxic” in data set [26] and “Toxic” in data set [32]. This molecule also had an Emax in data set [10] of 96.1%. In addition, in [12], the Drug uptake result is listed as “Active”. Also, the outcome in the data set on Mus musculus [28] and in the data set on Mus musculus [30] was Active. Moreover, the MPE with Mus musculus [15] is reported as 100%.

As a reminder, the Kd is the constant that tells how readily two partners part at equilibrium. By Emax is commonly meant the size of the effect at its maximum, as opposed to the concentration needed. For orientation: EC50 means the concentration at which the effect is half-maximal. Low readings indicate greater potency, high ones weaker potency. For orientation: ED50 means the midpoint of the dose-response relation.
